Source: ChEMBL document CHEMBL1152465, “Comparative evaluation of the inhibitory activities of a series of pyrimidinedione congeners that inhibit human immunodeficiency virus types 1 and 2” (Antimicrob Agents Chemother, 2008)
Active and inactive are the calls of the source.

Legend:
[1] = test system: Human immunodeficiency virus 1; experiment: Antiviral activity against HIV1 infected in human CEM-SS cells assessed as inhibition of viral replication and virus-induced cytopathic effect by dose-response curve analysis; type: functional; conditions: Human immunodeficiency virus 1, CEM-SS
[2] = Therapeutic index, ratio of TC50 human HeLa cells expressing CD4-LTR to EC50 for HIV1 entry inhibition in human HeLa cells expressing CD4-LTR; type: cell-based; conditions: read-out: TI
[3] = test system: Human immunodeficiency virus 2; experiment: Antiviral activity against HIV2 assessed as inhibition of viral single round replication at early time point; type: functional, organism-based
[4] = test system: Human immunodeficiency virus 2; experiment: Antiviral activity against HIV2 assessed as inhibition of viral replication treated at time points after viral entry into host cells; type: functional, organism-based
[5] = Therapeutic index, ratio of TC50 for human CEM-SS cells to EC50 for HIV1 RF infected in human CEM-SS cells; type: cell-based; conditions: read-out: TI
[6] = Cytotoxicity against human CEM-SS cells by XTT assay; type: cell-based; conditions: read-out: TC50 (the source's name)
[7] = test system: Human immunodeficiency virus 2; experiment: Antiviral activity against HIV2 ROD infected in human CEM-SS cells assessed as inhibition of virus-induced cytopathic effect by XTT assay; type: functional, organism-based, ISOLATE ROD
[8] = test system: Human immunodeficiency virus 1; experiment: Antiviral activity against HIV1 RF infected in human CEM-SS cells assessed as inhibition of virus-induced cytopathic effect by XTT assay; type: functional, organism-based; conditions: Human immunodeficiency virus 1, RF
[9] = molecular target: Human immunodeficiency virus type 1 reverse transcriptase (Human immunodeficiency virus 1, UniProt Q72547, K103N); experiment: Inhibition of HIV1 reverse transcriptase K103N mutant assessed as 32P-labeled GMP incorporation into nascent DNA strand
[10] = Therapeutic index, ratio of TC50 for human CEM-SS cells to EC50 for HIV2 ROD infected in human CEM-SS cells; type: cell-based; conditions: for selectivity ratio: CEM-SS cells, read-out: TI
[11] = test system: Human immunodeficiency virus 1; experiment: Antiviral activity against HIV1 infected in human HeLa cells expressing CD4-LTR assessed as inhibition of viral entry-related beta galactosidase expression treated for 2 hrs followed by drug wash out measured after 48 hrs by MAGI assay; type: functional, organism-based; conditions: Human immunodeficiency virus 1, HeLa
[12] = test system: Human immunodeficiency virus 2; experiment: Inhibition of HIV2 reverse transcriptase
[13] = Cytotoxicity against human HeLa cells expressing CD4-LTR by XTT assay; type: cell-based; conditions: read-out: TC50 (the source's name)
[14] = test system: Human immunodeficiency virus 2; experiment: Inhibition of HIV2 reverse transcriptase assessed as 32P-labeled GMP incorporation into nascent DNA strand at highest concentration
[15] = molecular target: Human immunodeficiency virus type 1 reverse transcriptase (Human immunodeficiency virus 1, UniProt Q72547); experiment: Inhibition of wild type HIV1 reverse transcriptase assessed as 32P-labeled GMP incorporation into nascent DNA strand
[16] = Human immunodeficiency virus 2, ISOLATE ROD, CEM-SS, read-out: EC50

For Cc1cc(C)cc(Sc2c(C(C)C)c(=O)[nH]c(=O)n2CC2CCC2)c1, the EC99 [1] was 1 µM, the selectivity ratio [2] was 37 and the Activity [3] was “Active”. The Activity [4] was “inactive”, the selectivity ratio [5] was 9290 and the CC50 [6] was 6.1 µM. It also gave an EC50 [7, 16] of 1.6 µM, an EC50 [8] of 0.00016 µM and an IC50 [9] of 182 µM. The selectivity ratio [10] was 3.9, the EC50 [11] was 0.28 µM and the Activity [12] was “inactive”. The CC50 [13] was 10.4 µM, the Activity [14] was “inactive” and the IC50 [15] was 0.02 µM.
With Cc1cc(C)cc(C(=O)c2c(C)c(=O)[nH]c(=O)n2CC2CC=CC2)c1 the EC99 [1] was 1 µM, the selectivity ratio [2] was 121 and the Activity [3] was “Active”. The Activity [4] was “inactive”, the selectivity ratio [5] was 14 and the CC50 [6] was 81.9 µM. For the same compound, the EC50 [7, 16] was 29.6 µM, the EC50 [8] was 5.91 µM and the IC50 [9] was > 295 µM. For the same compound, the selectivity ratio [10] was 2.8, the EC50 [11] was 0.68 µM and the Activity [12] was “inactive”. The CC50 [13] was 81.9 µM, the Activity [14] was “inactive” and the IC50 [15] was 12.7 µM.
For CCc1c(C(=O)c2cc(C)cc(C)c2)n(CCC2=CCCC2)c(=O)[nH]c1=O, the EC99 [1] was 1 µM, the selectivity ratio [2] was 421 and the Activity [3] was “Active”. For the same compound, the Activity [4] was “inactive”, the selectivity ratio [5] was 20100 and the CC50 [6] was 1100 µM. For the same compound, the EC50 [7, 16] was 18.6 µM, the EC50 [8] was 0.055 µM and the IC50 [9] was > 273 µM. For the same compound, the selectivity ratio [10] was > 58.6, the EC50 [11] was 2.6 µM and the Activity [12] was “inactive”. For the same compound, the CC50 [13] was 1100 µM, the Activity [14] was “inactive” and the IC50 [15] was 2 µM.
In the case of CCc1c(Oc2cc(C)cc(C)c2)n(CCC2=CCCC2)c(=O)[nH]c1=O, the EC99 [1] is reported as 1 µM, the selectivity ratio [2] is reported as 424 and the Activity [3] is reported as “Active”. The Activity [4] was “inactive”, the selectivity ratio [5] was 2600 and the CC50 [6] was 1100 µM. It also gave an EC50 [7, 16] of 28.2 µM, an EC50 [8] of 0.42 µM and an IC50 [9] of 247 µM. The selectivity ratio [10] was > 39.7, the EC50 [11] was 2.62 µM and the Activity [12] was “inactive”. The CC50 [13] was 1110 µM, the Activity [14] was “inactive” and the IC50 [15] was 10.3 µM.
For CCc1c(Sc2cc(C)cc(C)c2)n(CC2CC=CC2)c(=O)[nH]c1=O, the EC99 [1] was 1 µM, the selectivity ratio [2] was 148 and the Activity [3] was “Active”. The Activity [4] was “inactive”, the selectivity ratio [5] was 9060 and the CC50 [6] was 18.3 µM. For the same compound, the EC50 [7, 16] was 0.5 µM, the EC50 [8] was 0.0066 µM and the IC50 [9] was 2.4 µM. The selectivity ratio [10] was 38.2, the EC50 [11] was 0.26 µM and the Activity [12] was “inactive”. For the same compound, the CC50 [13] was 38.9 µM, the Activity [14] was “inactive” and the IC50 [15] was 0.21 µM.
With CCc1c(Sc2cc(C)cc(C)c2)n(CCC2C=CCC2)c(=O)[nH]c1=O (stereo not given) the EC99 [1] was 1 µM, the selectivity ratio [2] was 192 and the Activity [3] was “Active”. The Activity [4] was “inactive”, the selectivity ratio [5] was 641 and the CC50 [6] was 5.7 µM. For the same compound, the EC50 [7, 16] was 0.6 µM, the EC50 [8] was 0.01 µM and the IC50 [9] was > 270 µM. The selectivity ratio [10] was 10, the EC50 [11] was 0.03 µM and the Activity [12] was “inactive”. The CC50 [13] was 6.25 µM, the Activity [14] was “inactive” and the IC50 [15] was 0.128 µM.
For Cc1cc(C)cc(Oc2c(C(C)C)c(=O)[nH]c(=O)n2CC2CCCCC2)c1, the EC99 [1] was 1 µM, the selectivity ratio [2] was 41 and the Activity [3] was “Active”. For the same compound, the Activity [4] was “inactive”, the selectivity ratio [5] was 11400 and the CC50 [6] was 13.2 µM. The EC50 [7, 16] was 1.6 µM, the EC50 [8] was 0.0049 µM and the IC50 [9] was 11.9 µM. For the same compound, the selectivity ratio [10] was 8.4, the EC50 [11] was 0.84 µM and the Activity [12] was “inactive”. For the same compound, the CC50 [13] was 34.4 µM, the Activity [14] was “inactive” and the IC50 [15] was 0.143 µM.
For Cc1cc(C)cc(Sc2c(C(C)C)c(=O)[nH]c(=O)n2CC2CCCCC2)c1, the EC99 [1] was 1 µM, the selectivity ratio [2] was 1890 and the Activity [3] was “Active”. For the same compound, the Activity [4] was “inactive”, the selectivity ratio [5] was 1560 and the CC50 [6] was 13.2 µM. For the same compound, the EC50 [7, 16] was 5.5 µM, the EC50 [8] was 0.011 µM and the IC50 [9] was > 258 µM. For the same compound, the selectivity ratio [10] was 2.4, the EC50 [11] was 0.008 µM and the Activity [12] was “inactive”. For the same compound, the CC50 [13] was 15.2 µM, the Activity [14] was “inactive” and the IC50 [15] was 0.164 µM.
For Cc1cc(C)cc(Oc2c(C(C)C)c(=O)[nH]c(=O)n2CCC2=CCCC2)c1, the EC99 [1] was 1 µM, the selectivity ratio [2] was 6 and the Activity [3] was “Active”. For the same compound, the Activity [4] was “inactive”, the selectivity ratio [5] was 90 and the CC50 [6] was 17.1 µM. For the same compound, the EC50 ([7]; cem-ss) was “Not Active”, the EC50 [8] was 0.19 µM and the IC50 [9] was 176 µM. The TI ([10]; cem-ss) was “Not Active”, the EC50 [11] was 2.7 µM and the Activity [12] was “inactive”. The CC50 [13] was 17.4 µM, the Activity [14] was “inactive” and the IC50 [15] was 1.54 µM.
